Series [1] concerns normal breast tissue cells. The series is described as follows: Drug sensitivity test on SMGIR-cultured normal breast tissue (cancer-adjacent) cells from patients. The series is classed as cell-based. The following applies: Homo sapiens. From the text: (§1) Wherein, FIGS. 12D to 12I show the dose-response relationships of breast cancer cells (D, F, H) and normal breast tissue cells (E, G, I) from three patients (38, 7, and 71) to epirubicin; FIGS. 12J to 12O show the dose-response relationships of breast cancer cells (J, L, N) and normal breast tissue cells (K, M, O) from the same three patients (38, 7, and 71) to cyclophosphamide.
(§2) The inventors conducted drug-related experiments using the cancer cell models prepared by the method of the present application. FIG. 12A lists 8 types of common drugs used in clinical treatment of breast cancer, including epirubicin, cyclophosphamide, docetaxel, etc. This example selected two of them (FIG. 12B: epirubicin, FIG. 12C: cyclophosphamide) to conduct drug sensitivity tests on breast cancer cells from different patients cultivated in Example 5.

In another series the test system is breast cancer cells. Description: Drug sensitivity test on SMGIR-cultured breast cancer cells from patients. It counts as cell-based. Particulars: Homo sapiens.
Text: as §1, §2

A short description of the next series: in vitro. The following applies: human.
Text: as §1, §2

Consider two molecules from US12577537B2, “Method for culturing primary cancer cells through simulated microgravity-induced reprogramming and applications thereof” (SHANDONG UNIVERSITY, priority 2024, dated 2026).

The structures appear in SMILES notation.

Consider `COc1cccc2c1C(=O)c1c(O)c3c(c(O)c1C2=O)C[C@@](O)(C(=O)CO)C[C@@H]3O[C@H]1C[C@H](N)[C@@H](O)[C@H](C)O1` [epirubicin], for which the half-inhibitory concentration (IC50) was found to be 651 nM in series [1] (normal breast tissue cells from patient 7, SMGIR-cultured (FIG. 12G)); 357 nM in series [1] (normal breast tissue cells from patient 38, SMGIR-cultured (FIG. 12E)); 766 nM in series [1] (normal breast tissue cells from patient 71, SMGIR-cultured (FIG. 12I)); 454 nM with breast cancer cells (12 h, breast cancer cells from patient 71, SMGIR-cultured (FIG. 12H)); 583 nM in the series on breast cancer cells (breast cancer cells from patient 7, SMGIR-cultured (FIG. 12F)); 369 nM in the series on breast cancer cells (breast cancer cells from patient 38, SMGIR-cultured (FIG. 12D)).

`O=P1(N(CCCl)CCCl)NCCCO1` (stereo not shown) [cyclophosphamide] came in with a viability at 4000 μM in the series “in vitro” of 70 to 80%.
